These are literature values, as cited in patent US20100047788A1, “METHOD AND KIT FOR DIAGNOSIS AND MONITORING OF THE TREATMENT OF CHRONIC TRIPANOSSOMIASIS AND CHAGAS DISEASE” (FUNDACÃO UNIVERSIDADE DE BRASÍLIA CDTCAMPUS UNIVER, priority 2006, published 2010).

The test system of this data set is LINE-1. To be noted: background statement; taken as indication of non occurrence of the kDNA integration.

Each structure is given as a SMILES string.

On to `Cc1cn([C@H]2C[C@H](N=[N+]=[N-])[C@@H](CO)O2)c(=O)[nH]c1=O` [AZT], for which the “effect on retrotransposition of LINE-1” value is on record as “prevented the retrotransposition of LINE-1”.
